Reference: ChEMBL document CHEMBL4507270 (2021)
The source made the active and inactive calls. No cut-off for these calls is given here.

Columns and labels:
Angiopoietin-1 receptor = Angiopoietin-1 receptor (Homo sapiens, UniProt Q02763); test: NanoBRET assay (SGC Frankfurt) with TEK
[1] = target: RAC-beta serine/threonine-protein kinase (Homo sapiens) (UniProt P31751)
[2] = target: Bone morphogenetic protein receptor type-1A (Homo sapiens) (UniProt P36894)
[3] = target: Peripheral plasma membrane protein CASK (Homo sapiens) (UniProt O14936)
[4] = target: Cyclin-dependent kinase 11B (Homo sapiens) (UniProt P21127)
[5] = target: Cyclin-dependent kinase 2 (Homo sapiens) (UniProt P24941)
[6] = target: Dual specificity protein kinase CLK3 (Homo sapiens) (UniProt P49761)
[7] = target: Casein kinase I isoform alpha (Homo sapiens) (UniProt P48729)
[8] = test system: Epidermal growth factor receptor (Homo sapiens), P00533 [T790M]
[9] = target: Ephrin type-A receptor 6 (Homo sapiens) (UniProt Q9UF33)
[10] = target: Ephrin type-B receptor 2 (Homo sapiens) (UniProt P29323)
[11] = target: Mitogen-activated protein kinase 7 (Homo sapiens) (UniProt Q13164)
[12] = test system: Fibroblast growth factor receptor 3 (Homo sapiens), P22607 [G697C]
[13] = test system: Receptor-type tyrosine-protein kinase FLT3 (Homo sapiens), P36888 [N841I]
[14] = target: Tyrosine-protein kinase Fyn (Homo sapiens) (UniProt P06241)
[15] = target: Homeodomain-interacting protein kinase 1 (Homo sapiens) (UniProt Q86Z02)
[16] = target: Serine/threonine-protein kinase 10 (Homo sapiens, UniProt O94804)
Sequence of Serine/threonine-protein kinase 10 (O94804 whole entry, looked up): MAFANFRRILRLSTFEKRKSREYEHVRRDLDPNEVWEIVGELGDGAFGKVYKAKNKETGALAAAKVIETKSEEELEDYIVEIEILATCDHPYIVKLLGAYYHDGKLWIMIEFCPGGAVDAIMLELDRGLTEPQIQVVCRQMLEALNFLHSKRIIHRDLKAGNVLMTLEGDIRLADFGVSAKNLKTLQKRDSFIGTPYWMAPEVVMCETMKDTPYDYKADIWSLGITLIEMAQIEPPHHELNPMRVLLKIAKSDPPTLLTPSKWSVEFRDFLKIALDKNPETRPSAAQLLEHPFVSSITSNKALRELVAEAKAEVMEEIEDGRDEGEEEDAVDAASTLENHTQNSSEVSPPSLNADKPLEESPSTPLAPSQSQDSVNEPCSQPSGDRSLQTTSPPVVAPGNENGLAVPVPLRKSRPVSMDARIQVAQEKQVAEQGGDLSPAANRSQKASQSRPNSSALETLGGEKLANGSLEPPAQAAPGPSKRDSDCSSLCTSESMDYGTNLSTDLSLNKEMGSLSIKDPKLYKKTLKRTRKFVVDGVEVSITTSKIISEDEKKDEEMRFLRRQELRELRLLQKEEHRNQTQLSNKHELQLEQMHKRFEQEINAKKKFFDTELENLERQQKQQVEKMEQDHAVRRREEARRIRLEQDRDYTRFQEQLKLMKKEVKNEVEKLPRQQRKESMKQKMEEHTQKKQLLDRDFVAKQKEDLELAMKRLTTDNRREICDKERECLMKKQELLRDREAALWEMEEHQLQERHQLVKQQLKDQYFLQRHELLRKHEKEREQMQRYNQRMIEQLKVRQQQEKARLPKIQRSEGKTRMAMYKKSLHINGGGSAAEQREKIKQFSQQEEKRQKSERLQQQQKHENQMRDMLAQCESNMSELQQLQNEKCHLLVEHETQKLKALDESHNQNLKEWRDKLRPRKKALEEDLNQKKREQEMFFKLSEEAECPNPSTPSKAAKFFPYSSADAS

[17] = target: Serine/threonine-protein kinase MAK (Homo sapiens) (UniProt P20794)
[18] = target: Mitogen-activated protein kinase kinase kinase 1 (Homo sapiens) (UniProt Q13233)
[19] = target: Mitogen-activated protein kinase kinase kinase 15 (Homo sapiens) (UniProt Q6ZN16)
[20] = target: MAP kinase-activated protein kinase 5 (Homo sapiens) (UniProt Q8IW41)
[21] = target: Serine/threonine-protein kinase MARK2 (Homo sapiens) (UniProt Q7KZI7)
Sequence of Serine/threonine-protein kinase MARK2 (Homo sapiens) (Q7KZI7 whole entry): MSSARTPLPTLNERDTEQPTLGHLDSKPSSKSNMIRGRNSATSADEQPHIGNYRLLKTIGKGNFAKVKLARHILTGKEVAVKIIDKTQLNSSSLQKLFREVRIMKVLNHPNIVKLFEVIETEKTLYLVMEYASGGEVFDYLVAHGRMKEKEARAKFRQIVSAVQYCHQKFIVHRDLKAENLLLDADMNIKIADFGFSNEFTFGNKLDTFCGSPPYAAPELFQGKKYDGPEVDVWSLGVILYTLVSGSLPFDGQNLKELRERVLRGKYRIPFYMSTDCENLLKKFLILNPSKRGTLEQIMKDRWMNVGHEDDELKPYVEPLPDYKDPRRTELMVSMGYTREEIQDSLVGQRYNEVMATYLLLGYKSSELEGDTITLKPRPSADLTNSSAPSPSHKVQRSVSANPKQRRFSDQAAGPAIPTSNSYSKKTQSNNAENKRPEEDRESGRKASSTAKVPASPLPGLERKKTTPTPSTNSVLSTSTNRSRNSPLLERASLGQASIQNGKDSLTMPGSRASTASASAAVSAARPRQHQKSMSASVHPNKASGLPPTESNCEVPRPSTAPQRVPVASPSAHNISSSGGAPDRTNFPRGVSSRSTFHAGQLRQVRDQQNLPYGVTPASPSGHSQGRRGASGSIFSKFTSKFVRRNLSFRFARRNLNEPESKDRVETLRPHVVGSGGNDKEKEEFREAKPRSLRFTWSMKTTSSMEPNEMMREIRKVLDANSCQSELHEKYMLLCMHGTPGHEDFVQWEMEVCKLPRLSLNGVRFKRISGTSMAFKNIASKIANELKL

[22] = target: Muscle, skeletal receptor tyrosine-protein kinase (Homo sapiens) (UniProt O15146)
[23] = target: Serine/threonine-protein kinase 38 (Homo sapiens) (UniProt Q15208)
[24] = target: Serine/threonine-protein kinase 38-like (Homo sapiens) (UniProt Q9Y2H1)
Sequence of Serine/threonine-protein kinase 38-like (Homo sapiens) (Q9Y2H1 2-464 limits assumed): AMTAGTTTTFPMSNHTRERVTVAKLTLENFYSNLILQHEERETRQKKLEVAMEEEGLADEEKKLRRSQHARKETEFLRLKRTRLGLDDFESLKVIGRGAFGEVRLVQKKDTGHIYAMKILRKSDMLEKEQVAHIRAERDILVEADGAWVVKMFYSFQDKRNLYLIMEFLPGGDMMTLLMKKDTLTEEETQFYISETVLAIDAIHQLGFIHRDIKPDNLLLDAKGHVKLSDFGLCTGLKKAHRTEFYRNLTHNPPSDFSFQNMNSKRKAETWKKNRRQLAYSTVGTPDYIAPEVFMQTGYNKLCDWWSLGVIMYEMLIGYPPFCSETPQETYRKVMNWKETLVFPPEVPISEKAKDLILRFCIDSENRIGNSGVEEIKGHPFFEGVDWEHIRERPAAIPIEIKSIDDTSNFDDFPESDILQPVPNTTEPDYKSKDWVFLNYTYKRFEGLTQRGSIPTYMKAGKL

[25] = target: Serine/threonine-protein kinase Nek7 (Homo sapiens) (UniProt Q8TDX7)
Sequence of Serine/threonine-protein kinase Nek7 (Homo sapiens) (Q8TDX7 whole entry, looked up): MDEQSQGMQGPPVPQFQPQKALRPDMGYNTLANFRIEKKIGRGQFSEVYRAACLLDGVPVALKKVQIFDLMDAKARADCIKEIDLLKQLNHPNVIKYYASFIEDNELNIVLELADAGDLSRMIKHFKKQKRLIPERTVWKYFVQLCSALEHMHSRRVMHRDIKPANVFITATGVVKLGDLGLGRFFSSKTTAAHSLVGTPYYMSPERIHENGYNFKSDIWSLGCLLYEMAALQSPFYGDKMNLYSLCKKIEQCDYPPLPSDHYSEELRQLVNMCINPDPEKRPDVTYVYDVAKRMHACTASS

[26] = target: Mitogen-activated protein kinase 14 (Homo sapiens) (UniProt Q16539)
[27] = target: Cyclin-dependent kinase 15 (Homo sapiens) (UniProt Q96Q40)
[28] = target: Serine/threonine-protein kinase PLK2 (Homo sapiens) (UniProt Q9NYY3)
[29] = target: Proto-oncogene tyrosine-protein kinase receptor Ret (Homo sapiens) (UniProt P07949)
[30] = target: Receptor-interacting serine/threonine-protein kinase 4 (Homo sapiens) (UniProt P57078)
[31] = target: Proto-oncogene tyrosine-protein kinase ROS (Homo sapiens) (UniProt P08922)
[32] = target: Ribosomal protein S6 kinase alpha-4 (Homo sapiens) (UniProt O75676)
Sequence of Ribosomal protein S6 kinase alpha-4 (Homo sapiens) (O75676 whole entry, looked up): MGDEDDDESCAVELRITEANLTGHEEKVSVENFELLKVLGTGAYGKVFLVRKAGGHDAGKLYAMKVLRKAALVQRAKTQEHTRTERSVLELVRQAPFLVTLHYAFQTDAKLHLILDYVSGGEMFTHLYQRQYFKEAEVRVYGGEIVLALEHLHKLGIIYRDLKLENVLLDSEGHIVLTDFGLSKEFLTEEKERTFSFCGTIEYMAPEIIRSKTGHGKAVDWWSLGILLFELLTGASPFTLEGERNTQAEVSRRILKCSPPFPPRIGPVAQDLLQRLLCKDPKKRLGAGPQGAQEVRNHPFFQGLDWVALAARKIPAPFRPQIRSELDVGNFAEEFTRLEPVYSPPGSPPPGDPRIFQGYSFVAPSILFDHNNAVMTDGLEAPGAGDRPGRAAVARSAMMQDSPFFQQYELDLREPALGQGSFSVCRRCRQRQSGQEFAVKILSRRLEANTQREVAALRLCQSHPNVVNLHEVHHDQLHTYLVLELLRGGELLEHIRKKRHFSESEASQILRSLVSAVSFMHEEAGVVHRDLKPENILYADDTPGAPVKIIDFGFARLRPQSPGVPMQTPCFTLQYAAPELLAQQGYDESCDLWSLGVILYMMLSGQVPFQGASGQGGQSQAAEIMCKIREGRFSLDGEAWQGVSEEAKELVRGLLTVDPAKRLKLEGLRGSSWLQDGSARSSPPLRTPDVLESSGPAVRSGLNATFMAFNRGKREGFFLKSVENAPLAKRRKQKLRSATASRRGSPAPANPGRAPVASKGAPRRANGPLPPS

[33] = target: Ribosomal protein S6 kinase alpha-6 (Homo sapiens) (UniProt Q9UK32)
[34] = target: STE20-like serine/threonine-protein kinase (Homo sapiens) (UniProt Q9H2G2)
[35] = target: SRSF protein kinase 1 (Homo sapiens) (UniProt Q96SB4)
[36] = target: Tyrosine-protein kinase SYK (Homo sapiens) (UniProt P43405)
[37] = target: Serine/threonine-protein kinase tousled-like 2 (Homo sapiens) (UniProt Q86UE8)
[38] = target: High affinity nerve growth factor receptor (Homo sapiens) (UniProt P04629)
[39] = target: Testis-specific serine/threonine-protein kinase 1 (Homo sapiens) (UniProt Q9BXA7)
[40] = target: Wee1-like protein kinase (Homo sapiens) (UniProt P30291)
[41] = target: Wee1-like protein kinase 2 (Homo sapiens) (UniProt P0C1S8)
Sequence of Wee1-like protein kinase 2 (Homo sapiens) (P0C1S8 whole entry, looked up): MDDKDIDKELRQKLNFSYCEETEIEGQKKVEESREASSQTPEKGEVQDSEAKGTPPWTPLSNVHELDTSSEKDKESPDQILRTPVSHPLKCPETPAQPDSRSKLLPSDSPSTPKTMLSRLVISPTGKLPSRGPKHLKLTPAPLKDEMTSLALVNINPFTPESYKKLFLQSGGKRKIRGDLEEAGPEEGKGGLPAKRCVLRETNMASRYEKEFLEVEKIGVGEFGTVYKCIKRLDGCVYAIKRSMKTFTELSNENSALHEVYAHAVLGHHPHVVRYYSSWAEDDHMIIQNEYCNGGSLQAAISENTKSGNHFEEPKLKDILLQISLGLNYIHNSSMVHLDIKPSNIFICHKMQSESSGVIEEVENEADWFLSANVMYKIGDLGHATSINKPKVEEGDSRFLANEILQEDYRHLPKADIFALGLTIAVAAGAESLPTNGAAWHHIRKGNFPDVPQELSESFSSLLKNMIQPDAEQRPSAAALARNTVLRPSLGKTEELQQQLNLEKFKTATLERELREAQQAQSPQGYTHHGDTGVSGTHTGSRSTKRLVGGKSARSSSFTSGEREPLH

[42] = target: Mitogen-activated protein kinase kinase kinase 20 (Homo sapiens) (UniProt Q9NYL2)
[43] = target: D(4) dopamine receptor (Homo sapiens) (UniProt P21917); conditions: Compound concentration 10.0 uM
[44] = target: Alpha-1D adrenergic receptor (Homo sapiens) (UniProt P25100); conditions: Compound concentration 10.0 uM
[45] = Compound concentration 1000.0 nM
[46] = Compound concentration 100.0 nM

Sequence of Angiopoietin-1 receptor (Q02763 whole entry): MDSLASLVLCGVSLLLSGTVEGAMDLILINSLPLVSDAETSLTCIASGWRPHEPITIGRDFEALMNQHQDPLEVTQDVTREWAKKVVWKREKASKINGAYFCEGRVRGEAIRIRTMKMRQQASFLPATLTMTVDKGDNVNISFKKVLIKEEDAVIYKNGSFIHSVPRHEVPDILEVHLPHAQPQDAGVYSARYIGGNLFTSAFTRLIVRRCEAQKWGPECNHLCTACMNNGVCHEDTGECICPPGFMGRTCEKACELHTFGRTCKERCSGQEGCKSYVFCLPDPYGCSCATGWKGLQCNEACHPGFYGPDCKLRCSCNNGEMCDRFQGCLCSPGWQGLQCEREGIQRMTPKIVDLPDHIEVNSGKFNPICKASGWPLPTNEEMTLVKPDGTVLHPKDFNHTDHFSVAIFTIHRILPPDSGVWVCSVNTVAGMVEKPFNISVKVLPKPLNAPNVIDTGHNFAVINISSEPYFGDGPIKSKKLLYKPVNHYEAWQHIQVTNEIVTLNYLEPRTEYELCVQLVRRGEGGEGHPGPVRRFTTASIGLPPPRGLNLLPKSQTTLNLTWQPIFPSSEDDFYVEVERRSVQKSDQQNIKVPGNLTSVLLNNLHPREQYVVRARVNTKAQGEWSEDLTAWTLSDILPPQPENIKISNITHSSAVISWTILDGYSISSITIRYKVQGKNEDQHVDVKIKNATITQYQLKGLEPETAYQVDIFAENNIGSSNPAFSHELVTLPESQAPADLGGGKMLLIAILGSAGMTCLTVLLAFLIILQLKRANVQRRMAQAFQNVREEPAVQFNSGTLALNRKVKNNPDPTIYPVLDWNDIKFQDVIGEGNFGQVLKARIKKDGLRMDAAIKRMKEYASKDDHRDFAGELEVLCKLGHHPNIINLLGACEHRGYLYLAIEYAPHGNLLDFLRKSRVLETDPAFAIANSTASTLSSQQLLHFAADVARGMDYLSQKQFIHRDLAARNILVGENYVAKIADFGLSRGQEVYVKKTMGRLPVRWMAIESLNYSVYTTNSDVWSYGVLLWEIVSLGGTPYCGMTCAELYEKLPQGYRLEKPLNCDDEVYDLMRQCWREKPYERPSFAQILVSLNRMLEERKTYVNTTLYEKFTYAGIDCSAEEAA

Cc1cc(NC(=O)c2cccc(S(F)(F)(F)(F)F)c2)cc(-n2ccn3nc(-c4cccnc4)cc23)c1 [BAY-309]
EC50 (Angiopoietin-1 receptor): 3.3 µM (not active)
IC50 (Angiopoietin-1 receptor): 1.1 µM (not active)
residual activity [1, 45]: 82.5%
residual activity [2, 45]: 94.4%
residual activity [3, 45]: 68.1%
residual activity [4, 45]: 100%
residual activity [5, 45]: 100%
residual activity [6, 45]: 100%
residual activity [7, 45]: 50.7%
residual activity [8, 45]: 100%
residual activity [9, 45]: 100%
residual activity [10, 45]: 100%
residual activity [11, 45]: 90%
residual activity [12, 45]: 100%
residual activity [13, 45]: 100%
residual activity [14, 45]: 81.3%
residual activity [15, 45]: 49.1%
residual activity [16, 45]: 26.8%
residual activity [17, 45]: 100%
residual activity [18, 45]: 90%
residual activity [19, 45]: 100%
residual activity [20, 45]: 100%
residual activity [21, 45]: 100%
residual activity [22, 45]: 82%
residual activity [23, 45]: 92.3%
residual activity [24, 45]: 100%
residual activity [25, 45]: 100%
residual activity [26, 45]: 100%
residual activity [27, 45]: 59.9%
residual activity [28, 45]: 100%
residual activity [29, 45]: 100%
residual activity [30, 45]: 34.1%
residual activity [31, 45]: 92.8%
residual activity [32, 45]: 100%
residual activity [33, 45]: 100%
residual activity [34, 45]: 95.2%
residual activity [35, 45]: 100%
residual activity [36, 45]: 95.5%
residual activity [37, 45]: 94.3%
residual activity [38, 45]: 40.2%
residual activity [39, 45]: 100%
residual activity [40, 45]: 100%
residual activity [41, 45]: 100%
residual activity [42, 45]: 84.4%
inhibition [43]: 12.4%
inhibition [44]: 27.7%

Cc1cc(C)c(-n2ccn3nc(-c4cccnc4)cc23)cc1NC(=O)c1cc(C#N)cc(S(F)(F)(F)(F)F)c1 [BAY-826]
EC50 (Angiopoietin-1 receptor): 0.0017 µM (active)
IC50 (Angiopoietin-1 receptor): 0.0007 µM (active)
residual activity [1, 46]: 88.4%
residual activity [2, 46]: 97.2%
residual activity [3, 46]: 86.6%
residual activity [4, 46]: 93.2%
residual activity [5, 46]: 99%
residual activity [6, 46]: 87.7%
residual activity [7, 46]: 67%
residual activity [8, 46]: 61.6%
residual activity [9, 46]: 82.6%
residual activity [10, 46]: 71.4%
residual activity [11, 46]: 100%
residual activity [12, 46]: 100%
residual activity [13, 46]: 95.3%
residual activity [14, 46]: 97.5%
residual activity [15, 46]: 61.6%
residual activity [16, 46]: 1.8%
residual activity [17, 46]: 77.2%
residual activity [18, 46]: 78.3%
residual activity [19, 46]: 48.8%
residual activity [20, 46]: 91.7%
residual activity [21, 46]: 100%
residual activity [22, 46]: 78.6%
residual activity [23, 46]: 80.4%
residual activity [24, 46]: 98.9%
residual activity [25, 46]: 75.5%
residual activity [26, 46]: 0%
residual activity [27, 46]: 76%
residual activity [28, 46]: 83.3%
residual activity [29, 46]: 82%
residual activity [30, 46]: 62.9%
residual activity [31, 46]: 100%
residual activity [32, 46]: 79.3%
residual activity [33, 46]: 74.9%
residual activity [34, 46]: 48.5%
residual activity [35, 46]: 67.4%
residual activity [36, 46]: 100%
residual activity [37, 46]: 100%
residual activity [38, 46]: 74.8%
residual activity [39, 46]: 100%
residual activity [40, 46]: 100%
residual activity [41, 46]: 77.4%
residual activity [42, 46]: 97.5%
inhibition [43]: 16.4%
inhibition [44]: -2.46%
